Reference: patent US20080207708A1, “Oxazole and Thiazole Compounds and Their Use in the Treatment of Pge2 Mediated Disorders” (GLAXO GROUP LIMITED, priority 2005, published 2008)

Biological target: T1, EP1 receptors (Homo sapiens, UniProt P34995)
T1 sequence (P34995 1-402): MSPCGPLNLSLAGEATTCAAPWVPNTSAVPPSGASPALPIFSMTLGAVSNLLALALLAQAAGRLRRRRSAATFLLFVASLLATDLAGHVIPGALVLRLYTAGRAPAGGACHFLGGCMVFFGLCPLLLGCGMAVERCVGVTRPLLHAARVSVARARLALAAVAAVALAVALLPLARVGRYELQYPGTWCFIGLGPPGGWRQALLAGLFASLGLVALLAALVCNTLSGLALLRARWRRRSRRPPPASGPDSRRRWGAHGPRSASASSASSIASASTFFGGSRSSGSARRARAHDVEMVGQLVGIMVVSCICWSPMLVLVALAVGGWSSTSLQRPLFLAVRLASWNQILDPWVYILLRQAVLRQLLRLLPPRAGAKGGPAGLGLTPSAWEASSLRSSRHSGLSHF
Test: Binding assay for the human prostanoid EP1 receptor (competition with [3H]-PGE2)
Design: expressed in transfected cells; host or cells: CHO-K1 cells, membrane fraction
Conditions: [3H]-PGE2 competition; averages of a number of experiments; read-out: pIC50 value, binding assay for the human prostanoid EP1 receptor (converted)
Description: Competition assay using [^3H]-PGE2.
Compound potencies are determined using a radioligand binding assay. In this assay compound potencies are determined from their ability to compete with tritiated prostaglandin E2 ([^3H]-PGE2) for binding to the human EP1 receptor.
This assay utilises Chinese hamster ovary-K1 (CHO-K1) cells into which a stable vector containing the EP1 cDNA has previously been transfected. Cells are cultured in suitable flasks containing culture medium such as DMEM:F-12 supplemented with 10% v/v foetal calf serum, 2 mM L-glutamine, 0.25 mg/ml geneticin, 10 μg/ml puromycin and 10 μM indomethacin.
Cells are detached from the culture flasks by incubation in calcium and magnesium free phosphate buffered saline containing 1 mM disodium ethylenediaminetetraacetic acid (Na2EDTA) and 10 μM indomethacin for 5 min. The cells are isolated by centrifugation at 250×g for 5mins and suspended in an ice cold buffer such as 50 mM Tris, 1 mM Na2EDTA, 140 mM NaCl, 10 μM indomethacin (pH 7.4). The cells are homogenised using a Polytron tissue disrupter (2×10 s burst at full setting), centrifuged at 48,000×g for 20mins and the pellet containing the membrane fraction is washed (optional) three times by suspension and centrifugation at 48,000×g for 20mins. The final membrane pellet is suspended in an assay buffer such as 10 mM 2-[N-morpholino]ethanesulphonic acid, 1 mM Na2EDTA, 10 mM MgCl2 (pH 6). Aliquots are frozen at […] until required.
For the binding assay the cell membranes, competing compounds and [^3H]-PGE2 (3 nM final assay concentration) are incubated in a final volume of 100 μl for 30 min at 30° C. All reagents are prepared in assay buffer. Reactions are terminated by rapid vacuum filtration over GF/B filters using a Brandell cell harvester. The filters are washed with ice cold assay buffer, dried and the radioactivity retained on the filters is measured by liquid scintillation counting in Packard TopCount scintillation counter.
The data are analysed using non linear curve fitting techniques to determine the concentration of compound producing 50% inhibition of specific binding (IC50).

IC50 [µM] | Structure (SMILES)
≤ 1 | NC(=O)c1nc(Cc2cc(Cl)ccc2OCc2ccc(F)cc2F)cs1 [Example 1, 4-[(5-chloro-2-{[(2,4-difluorophenyl)methyl]oxy}phenyl)methyl]-1,3-thiazole-2-carboxamide]
≤ 1 | NC(=O)c1nc(Cc2cc(Cl)ccc2OCc2ccccc2F)cs1 [Example 2, 4-[(5-chloro-2-{[(2-fluorophenyl)methyl]oxy}phenyl)methyl]-1,3-thiazole-2-carboxamide]
≤ 1 | NC(=O)c1nc(Cc2cc(Cl)ccc2OCc2ccccc2Cl)cs1 [Example 3, 4-[(5-chloro-2-{[(2-chlorophenyl)methyl]oxy}phenyl)methyl]-1,3-thiazole-2-carboxamide]
≤ 1 | NC(=O)c1nc(Cc2cc(Cl)ccc2OCc2c(F)cc(F)cc2F)cs1 [Example 4, 4-[(5-chloro-2-{[(2,4,6-trifluorophenyl)methyl]oxy}phenyl)methyl]-1,3-thiazole-2-carboxamide]
≤ 1 | NC(=O)c1nc(Cc2cc(Cl)ccc2OCc2ccc(Cl)cc2)cs1 [Example 5, 4-[(5-chloro-2-{[(4-chlorophenyl)methyl]oxy}phenyl)methyl]-1,3-thiazole-2-carboxamide]
≤ 1 | NC(=O)c1nc(Cc2cc(Cl)ccc2OCc2ccc(F)cc2Cl)cs1 [Example 6, 4-[(5-chloro-2-{[(2-chloro-4-fluorophenyl)methyl]oxy}phenyl)methyl]-1,3-thiazole-2-carboxamide]
> 1 | NC(=O)c1nc(Cc2cc(Cl)ccc2OCc2c(F)ccc(F)c2F)cs1 [Example 7, 4-[(5-chloro-2-{[(2,3,6-trifluorophenyl)methyl]-oxy}phenyl)methyl]-1,3-thiazole-2-carboxamide]
≤ 1 | NC(=O)c1nc(Cc2cc(Cl)ccc2OCc2cc(F)c(F)cc2F)cs1 [Example 8, 4-[(5-chloro-2-{[(2,4,5-trifluorophenyl)methyl]oxy}phenyl)methyl]-1,3-thiazole-2-carboxamide]
≤ 0.0316 | O=C(O)c1csc(Cc2cc(Cl)ccc2OCc2ccccc2)n1 [Example 9, 2-({5-chloro-2-[(phenylmethyl)oxy]phenyl}methyl)-1,3-thiazole-4-carboxylicacid]
≤ 0.0316 | O=C(O)c1csc(Cc2cc(Cl)ccc2OCc2ccccc2F)n1 [Example 10, 2-[(5-chloro-2-{[(2-fluorophenyl)methyl]oxy}phenyl)methyl]-1,3-thiazole-4-carboxylicacid]
≤ 0.0316 | O=C(O)c1csc(Cc2cc(Cl)ccc2OCc2ccc(Cl)cc2)n1 [Example 11, 2-[(5-chloro-2-{[(4-chlorophenyl)methyl]oxy}phenyl)methyl]-1,3-thiazole-4-carboxylicacid]
≤ 0.0316 | O=C(O)c1csc(Cc2cc(Cl)ccc2OCc2ccc(F)cc2)n1 [Example 12, 2-[(5-chloro-2-{[(4-fluorophenyl)methyl]oxy}phenyl)methyl]-1,3-thiazole-4-carboxylicacid]
≤ 0.0316 | O=C(O)c1csc(Cc2cc(Cl)ccc2OCc2c(F)cc(F)cc2F)n1 [Example 13, 2-[(5-chloro-2-{[(2,4,6-trifluorophenyl)methyl]oxy}phenyl)methyl]-1,3-thiazole-4-carboxylicacid]
≤ 0.0316 | O=C(O)c1csc(Cc2cc(Cl)ccc2OCc2ccc(F)cc2Cl)n1 [Example 14, 2-[(5-chloro-2-{[(2-chloro-4-fluorophenyl)methyl]oxy}phenyl)methyl]-1,3-thiazole-4-carboxylicacid]
≤ 0.0316 | O=C(O)c1csc(Cc2cc(Cl)ccc2OCc2ccccc2Cl)n1 [Example 15, 2-[(5-chloro-2-{[(2-chlorophenyl)methyl]oxy}phenyl)methyl]-1,3-thiazole-4-carboxylicacid]
≤ 0.0316 | O=C(O)c1csc(Cc2cc(Cl)ccc2OCc2ccc(F)cc2F)n1 [Example 16, 2-[(5-chloro-2-{[(2,4-difluorophenyl)methyl]oxy}phenyl)methyl]-1,3-thiazole-4-carboxylicacid]

IC50 [µM] | Structure (SMILES)
≤ 0.0316 | O=C(O)c1csc(Cc2cc(Cl)ccc2OCc2ccc(Cl)cc2Cl)n1 [Example 17, 2-[(5-chloro-2-{[(2,4-dichlorophenyl)methyl]oxy}phenyl)methyl]-1,3-thiazole-4-carboxylicacid]
≤ 0.0316 | O=C(O)c1csc(Cc2cc(Cl)ccc2OCc2cc(F)c(F)cc2F)n1 [Example 18, Sodium 2-[(5-chloro-2-{[(2,4,5-trifluorophenyl)methyl]oxy}phenyl)methyl]-1,3-thiazole-4-carboxylate]
≤ 1 | O=C(O)c1csc(Cc2cc(Cl)ccc2OCc2c(F)ccc(F)c2F)n1 [Example 19, Sodium 2-[(5-chloro-2-{[(2,3,6-trifluorophenyl)methyl]oxy}phenyl)methyl]-1,3-thiazole-4-carboxylate]
≤ 1 | O=C(O)c1csc(Cc2cc(Cl)ccc2OCc2ccc(F)c(F)c2F)n1 [Example 20, Sodium 2-[(5-chloro-2-{[(2,3,4-trifluorophenyl)methyl]oxy}phenyl)methyl]-1,3-thiazole-4-carboxylate]
≤ 1 | O=C(O)c1csc(Cc2cc(Cl)ccc2OCc2cc(F)c(F)c(F)c2)n1 [Example 21, Sodium 2-[(5-chloro-2-{[(3,4,5-trifluorophenyl)methyl]oxy}phenyl)methyl]-1,3-thiazole-4-carboxylate]
≤ 0.0316 | O=C(O)c1csc(Cc2cc(Cl)ccc2OCc2ccc(Br)cc2F)n1 [Example 22, Sodium 2-[(2-{[(4-bromo-2-fluorophenyl)methyl]oxy}-5-chlorophenyl)methyl]-1,3-thiazole-4-carboxylate]
≤ 0.0316 | CC(C)COc1ccc(Cl)cc1Cc1nc(C(=O)O)cs1 [Example 23, Sodium 2-({5-chloro-2-[(2-methylpropyl)oxy}phenyl}methyl)-1,3-thiazole-4-carboxylate]
≤ 0.0316 | O=C(O)c1csc(Cc2cc(C(F)(F)F)ccc2OCc2ccccc2)n1 [Example 24, Sodium 2-{[2-[(phenylmethyl)oxy]-5-(trifluoromethyl)phenyl]methyl}-1,3-thiazole-4-carboxylate]
≤ 1 | O=C(O)c1csc(Cc2cc(C(F)(F)F)ccc2OCc2ccc(F)cc2)n1 [Example 25, Sodium 2-{[2-{[(4-fluorophenyl)methyl]oxy}-5-(trifluoromethyl)phenyl]methyl}-1,3-thiazole-4-carboxylate]
≤ 0.0316 | O=C(O)c1csc(Cc2cc(C(F)(F)F)ccc2OCc2ccc(F)cc2F)n1 [Example 26, Sodium 2-{[2-{[(2,4-difluorophenyl)methyl]oxy}-5-(trifluoromethyl)phenyl]methyl}-1,3-thiazole-4-carboxylate]
≤ 0.0316 | O=C(O)c1csc(Cc2cc(Cl)ccc2OCC2CCCC2)n1 [Example 27, Sodium 2-({5-chloro-2-[(cyclopentylmethyl)oxy]phenyl}methyl)-1,3-thiazole-4-carboxylate]
≤ 1 | O=C(O)c1csc(Cc2cc(C(F)(F)F)ccc2OCc2ccccc2Br)n1 [Example 28, Sodium 2-{[2-{[(2-bromophenyl)methyl]oxy}-5-(trifluoromethyl)phenyl]methyl}-1,3-thiazole-4-carboxylate]
≤ 0.0316 | O=C(O)c1csc(Cc2cc(C(F)(F)F)ccc2OCc2ccccc2F)n1 [Example 29, Sodium 2-{[2-{[(2-fluorophenyl)methyl]oxy}-5-(trifluoromethyl)phenyl]methyl}-1,3-thiazole-4-carboxylate]
≤ 0.0316 | O=C(O)c1csc(Cc2cc(C(F)(F)F)ccc2OCc2ccccc2Cl)n1 [Example 30, Sodium 2-{[2-{[(2-chlorophenyl)methyl]oxy}-5-(trifluoromethyl)phenyl]methyl}-1,3-thiazole-4-carboxylate]
≤ 0.0316 | O=C(O)c1csc(Cc2cc(C(F)(F)F)ccc2OCc2ccc(Br)cc2)n1 [Example 31, Sodium 2-{[2-{[(4-bromophenyl)methyl]oxy}-5-(trifluoromethyl)phenyl]methyl}-1,3-thiazole-4-carboxylate]
≤ 0.0316 | O=C(O)c1csc(Cc2cc(C(F)(F)F)ccc2OCc2ccc(Cl)cc2F)n1 [Example 32, Sodium 2-{[2-{[(4-chloro-2-fluorophenyl)methyl]oxy}-5-(trifluoromethyl)phenyl]methyl}-1,3-thiazole-4-carboxylate]
